Our source for the Ki values is ChEMBL document CHEMBL3886562, “Substituted pyridone derivatives as PDE10 inhibitors” (2016).

This assay addresses cAMP and cAMP-inhibited cGMP 3',5'-cyclic phosphodiesterase 10A (Homo sapiens, UniProt Q9Y233). Briefly: PDE10 Fluorescence Polarization (FP) Assay: The fluorescence polarization assay for cyclic nucleotide phosphodiesterases was performed using an IMAP FP kit supplied by Molecular Devices, Sunnyvale, Calif. (product # R8139). IMAPU technology has been applied previously to phosphodiesterase assays (Huang, W., et al., J. Biomol Screen, 2002, 7: 215). Assays were performed at room temperature in 384-well microtiter plates with an incubation volume of 20.2 uL. Solutions of test compounds were prepared in DMSO and serially diluted with DMSO to yield 8 uL of each of 10 solutions differing by 3-fold in concentration, at 32 serial dilutions per plate.

Chain of cAMP and cAMP-inhibited cGMP 3',5'-cyclic phosphodiesterase 10A (Q9Y233 whole entry): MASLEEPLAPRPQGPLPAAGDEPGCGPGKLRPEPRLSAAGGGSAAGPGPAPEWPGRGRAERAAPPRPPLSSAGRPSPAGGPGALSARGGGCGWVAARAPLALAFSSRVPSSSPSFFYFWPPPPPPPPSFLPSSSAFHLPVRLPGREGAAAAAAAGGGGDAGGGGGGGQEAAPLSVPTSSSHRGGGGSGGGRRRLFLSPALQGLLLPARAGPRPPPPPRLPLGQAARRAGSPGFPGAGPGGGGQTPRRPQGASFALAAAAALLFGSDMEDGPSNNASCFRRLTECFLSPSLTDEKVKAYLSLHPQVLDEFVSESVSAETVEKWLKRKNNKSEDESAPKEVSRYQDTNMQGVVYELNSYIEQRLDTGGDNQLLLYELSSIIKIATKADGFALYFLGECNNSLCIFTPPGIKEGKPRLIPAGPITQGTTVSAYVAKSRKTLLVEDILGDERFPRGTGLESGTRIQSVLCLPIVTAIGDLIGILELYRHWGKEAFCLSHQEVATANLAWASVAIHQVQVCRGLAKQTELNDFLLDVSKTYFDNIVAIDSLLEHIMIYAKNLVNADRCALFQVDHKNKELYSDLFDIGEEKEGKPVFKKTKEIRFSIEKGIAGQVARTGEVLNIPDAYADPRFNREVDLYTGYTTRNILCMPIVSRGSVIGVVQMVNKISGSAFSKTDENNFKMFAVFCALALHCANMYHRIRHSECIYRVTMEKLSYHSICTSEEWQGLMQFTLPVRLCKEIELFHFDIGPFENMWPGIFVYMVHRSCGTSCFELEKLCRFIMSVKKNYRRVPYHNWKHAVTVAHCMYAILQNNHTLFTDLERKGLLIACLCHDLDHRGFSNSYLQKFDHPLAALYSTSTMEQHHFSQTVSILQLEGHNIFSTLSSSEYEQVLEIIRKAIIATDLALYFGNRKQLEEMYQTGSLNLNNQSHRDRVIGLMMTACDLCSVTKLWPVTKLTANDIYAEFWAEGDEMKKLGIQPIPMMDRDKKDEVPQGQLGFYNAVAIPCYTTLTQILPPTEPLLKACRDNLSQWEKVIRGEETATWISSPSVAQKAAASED

`Cc1ncc(-c2cc(F)c(=O)n(C)c2)c(OC[C@H]2C[C@@H]2c2ccc3ccccc3n2)n1` gave a Ki of 0.041 nM. `Cc1ccc([C@H]2C[C@@H]2COc2nc(C)ncc2-c2ccc(=O)n(CC#N)c2)nc1` gave an inhibitory constant (Ki) of 3.48 nM.
